One data set has as its system male beagle dogs. Description: Clinical signs and body weight in the single dose dog study (Example 5). The format is in vivo, beagle dog (Canis familiaris). The note with it: study period. An excerpt: Before dosing initiation, all animals were weighed and assigned to treatment groups. At the start of treatment, animals were 7-16 months of age and ranged in weight as 6.4 to 9.4 kg. Animals were housed individually in stainless steel cages equipped with a mesh-type floor and an automatic watering valve. A standard certified pelleted commercial dog food (approximately 400 g of Certified Canine Diet 5C07, PMI Nutrition International, Inc.) was provided to each animal once daily, except during designated procedures. Maximum allowable concentrations of contaminants in the diet (e.g., heavy metals, aflatoxin, organophosphates, chlorinated hydrocarbons, PCBs) were controlled and routinely analyzed by the manufacturers. It was considered that there were no known contaminants in the food that could have interfered with the objectives of the study. Municipal tap water, which was softened, purified by reverse osmosis and exposed to ultraviolet light, was freely available except during designated procedures. It was considered that there were no known contaminants in the water that could have interfered with the objectives of the study. Each Animal was provided with a floor toy, except during designated activities.
Individual body weights were measured once during the predose period and prior to each dose on dosing days.

The subject of the next data set is canine. Description: Canine chronic toxicology study. The note with it: very highest 2,000 mg/kg dose level. The format is in vivo, dog.

Each structure is given as a SMILES string.

Turning to `CC(=O)N[C@H]1[C@H]([C@H](O)[C@H](O)CO)OC(O)(C(=O)O)C[C@@H]1O` (stereo partly drawn) [sialic acid, 5-N-acetylneuraminic acid], the treatment-related clinical signs entry in the data set on male beagle dogs (oral or intravenous administration) is recorded as “no treatment-related clinical signs”. For the same molecule, the “body weight or body weight gains” value with male beagle dogs was “no treatment related changes in body weight or body weight gains”. In addition, in the data set on canine, the “finding in canine chronic toxicology study” value is “loosening of stools”.
